Measured values as given in ChEMBL document CHEMBL1938230, “6-Position optimization of tricyclic 4-quinolone-based inhibitors of glycogen synthase kinase-3β: discovery of nitrile derivatives with picomolar potency” (Bioorg Med Chem Lett, 2012).

Experiments:
Assay type in all cases: cell-free
[1] = target: T1, Phosphatidylinositol 5-phosphate 4-kinase type-2 alpha (Homo sapiens) (UniProt P48426); assay: Inhibition of human PIP4K2A in HL-60 cells lysate assessed as reduction of labeling of acyl-phosphate ATP probe at 100 nM
T1 sequence (whole entry): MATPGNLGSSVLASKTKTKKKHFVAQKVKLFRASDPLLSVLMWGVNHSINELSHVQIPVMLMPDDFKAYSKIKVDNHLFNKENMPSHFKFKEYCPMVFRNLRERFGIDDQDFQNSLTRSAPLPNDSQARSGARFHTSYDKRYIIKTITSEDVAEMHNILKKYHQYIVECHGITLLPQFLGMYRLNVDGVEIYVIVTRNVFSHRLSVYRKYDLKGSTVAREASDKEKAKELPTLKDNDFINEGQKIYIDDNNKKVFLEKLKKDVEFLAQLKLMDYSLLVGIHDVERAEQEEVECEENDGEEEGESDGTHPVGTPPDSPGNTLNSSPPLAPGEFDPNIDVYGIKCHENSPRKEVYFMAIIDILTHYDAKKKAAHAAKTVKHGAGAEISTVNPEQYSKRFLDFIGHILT

[2] = target: T2, Dual specificity mitogen-activated protein kinase kinase 3 (Homo sapiens) (UniProt P46734); assay: Inhibition of human MAP2K3 in HL-60 cells lysate assessed as reduction of labeling of acyl-phosphate ATP probe at 100 nM
T2 sequence (whole entry): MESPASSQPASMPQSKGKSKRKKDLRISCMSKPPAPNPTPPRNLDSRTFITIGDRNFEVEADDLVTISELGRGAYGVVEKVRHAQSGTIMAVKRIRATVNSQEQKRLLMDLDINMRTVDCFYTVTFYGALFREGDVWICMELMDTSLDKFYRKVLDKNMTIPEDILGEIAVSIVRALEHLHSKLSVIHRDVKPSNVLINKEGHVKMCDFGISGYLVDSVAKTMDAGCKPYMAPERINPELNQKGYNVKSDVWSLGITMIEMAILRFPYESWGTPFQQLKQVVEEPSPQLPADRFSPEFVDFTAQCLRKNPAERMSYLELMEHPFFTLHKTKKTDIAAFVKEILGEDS

[3] = target: T3, Dual specificity mitogen-activated protein kinase kinase 4 (Homo sapiens) (UniProt P45985); assay: Inhibition of human MAP2K4 in HL-60 cells lysate assessed as reduction of labeling of acyl-phosphate ATP probe at 100 nM
T3 sequence (whole entry): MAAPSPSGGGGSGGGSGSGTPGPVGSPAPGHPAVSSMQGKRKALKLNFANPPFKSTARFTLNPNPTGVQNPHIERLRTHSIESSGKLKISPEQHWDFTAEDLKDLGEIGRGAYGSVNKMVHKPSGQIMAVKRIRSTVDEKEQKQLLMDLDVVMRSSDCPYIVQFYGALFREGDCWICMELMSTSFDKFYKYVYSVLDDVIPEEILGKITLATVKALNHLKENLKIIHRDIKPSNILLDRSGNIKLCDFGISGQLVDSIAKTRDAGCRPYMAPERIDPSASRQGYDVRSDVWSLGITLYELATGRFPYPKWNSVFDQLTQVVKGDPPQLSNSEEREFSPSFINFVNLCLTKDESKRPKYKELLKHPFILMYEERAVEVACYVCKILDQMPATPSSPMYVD

[4] = target: T4, Aurora kinase A (Homo sapiens) (UniProt O14965); assay: Inhibition of human AurA in HL-60 cells lysate assessed as reduction of labeling of acyl-phosphate ATP probe at 100 nM
T4 sequence (whole entry): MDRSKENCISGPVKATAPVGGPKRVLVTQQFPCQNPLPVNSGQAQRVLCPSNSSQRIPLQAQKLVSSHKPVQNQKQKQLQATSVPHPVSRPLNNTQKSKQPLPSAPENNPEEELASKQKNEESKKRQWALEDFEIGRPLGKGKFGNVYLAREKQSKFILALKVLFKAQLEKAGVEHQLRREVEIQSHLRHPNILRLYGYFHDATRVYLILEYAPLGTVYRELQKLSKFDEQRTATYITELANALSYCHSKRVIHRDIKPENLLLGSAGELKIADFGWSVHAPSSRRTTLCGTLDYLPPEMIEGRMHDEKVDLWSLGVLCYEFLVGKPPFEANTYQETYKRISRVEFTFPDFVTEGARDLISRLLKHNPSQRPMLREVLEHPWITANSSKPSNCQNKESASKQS

Measured: inhibition

C[C@H]1COc2c(NCCCn3cccn3)c(F)c(N)c3c(=O)c(C#N)cn1c23
< 35%: all assays above

C[C@H]1COc2c(NCCCc3ccccn3)c(F)c(N)c3c(=O)c(C#N)cn1c23
< 35%: all assays above

C[C@H]1COc2c(NCCCn3cccn3)c(F)c(N)c3c(=O)c(C(=O)O)cn1c23
< 35%: all assays above

C[C@H]1COc2c(NCCCc3ccccn3)c(F)c(N)c3c(=O)c(C(=O)O)cn1c23
< 35%: all assays above
